# Experimental data: patent US20160130293A1, “NOVEL COMPOUND DERIVED FROM PLANT OF GENUS QUAMOCLIT AND COMPOSITION CONTAINING SAME AS ACTIVE INGREDIENT FOR PREVENTING OR TREATING DIABETES” (KOREA RESEARCH INSTITUTE BIOSCIENCE, priority 2013, published 2016)
# Tests used:
# [1] = tested on: mice fed with high-fat diet (Male C57BL/6J); assay: Fasting blood glucose test in high-fat diet mice after 2 weeks of treatment; format: in vivo, mouse; settings: 1 mg/kg oral daily for 2 weeks, fasted 16 hours, FIG. 6
# Method: 5-week-old mouse (Male C57BL/6J, 19 g, Koatech, Pyeongtaek, Korea) was purchased and acclimated under constant temperature (25° C.) and humidity (50%) for 1 week and used for the experiment. Mice were classified into a group fed with normal diet and a group fed with high-fat diet and the mice were fed for 2 weeks, each group consisting of five mice.
# At 2 weeks after feeding with high-fat diet, the experimental mice were classified into a normal mouse control group, a diabetic mouse control group, a diabetic mouse group treated with drug (glimepiride), a diabetic mouse group treated with the Quamoclit angulata-derived novel compound (KRIBB-BH-P, 1 mg/kg), and a diabetic mouse group treated with the Quamoclit angulata-derived novel compound (KRIBB-BH-SFP, 1 mg/kg), and the treated mice were orally administered with the drug and compounds daily for 2 weeks. Then, the mice were fasted for 16 hours, and the level of blood glucose was measured.
# [2] = tested on: diabetic mice (Male C57BL/Ks DB/DB mouse); assay: Blood glucose in diabetic mice treated orally for 4 weeks; format: in vivo; settings: 1 mg/kg oral daily for 4 weeks, vs diabetic mouse control group, FIG. 4
# Method: Normal mice and diabetic mice were treated with the Quamoclit-derived novel compound to determine the changes in diabetes indicators such as blood glucose and glycated hemoglobin.
# (§1) 6-week-old mice (Male C57BL/6J mouse, 20 g, Central Lab. Animal Inc., Seoul) and 6-week-old diabetic mice (Male C57BL/Ks DB/DB mouse, 20 g, Central Lab. Animal Inc., Seoul) were purchased and acclimated under constant temperature (25° C.) and humidity (50%) for 1 week and used for the experiment.
# (§2) Mice were classified into a normal mouse control group, a diabetic mouse control group, a diabetic mouse group treated with drug (glimepiride), a diabetic mouse group treated with the Quamoclit angulata-derived novel compound (KRIBB-BH-P, 1 mg/kg), and a diabetic mouse group treated with the Quamoclit angulata-derived novel compound (KRIBB-BH-SFP, 1 mg/kg), each group consisting of five mice. The treated mice were orally administered with the drug and compounds daily for 4 weeks. The change in blood glucose in mice of each group was measured every week, and after 4 weeks, blood was collected from each mouse to measure the concentration of glycated hemoglobin.
# [3] = tested on: diabetic mice (Male C57BL/Ks DB/DB mouse); assay: Glycated hemoglobin (HbA1c) in diabetic mice after 4 weeks, ELISA kit; format: in vivo; settings: 1 mg/kg oral daily for 4 weeks
# Method: as §1, §2
# In order to reduce the complications developed in diabetic patients under treatment, it is important to maintain the level of blood glucose at an appropriate level. Since the levels of blood glucose measured at a certain time may be changed by various factors, the test of glycated hemoglobin (HbAlc) is most widely used for the purpose of determining the long-term change in blood glucose control. […]
# In order to determine the effect of the Quamoclit angulata-derived novel compound on the glycated hemoglobin, blood was collected from each mouse in the normal mouse control group, the diabetic mouse control group, the diabetic mouse group treated with the Quamoclit angulata-derived novel compound (KRIBB-BH-P, 1 mg/kg), and the diabetic mouse group treated with the Quamoclit angulata-derived novel compound (KRIBB-BH-SFP, 1 mg/kg), in which the treated mice were orally administered with the compounds daily for 4 weeks, and the levels of glycated hemoglobin were measured using an ELISA kit (Cusabio biotech, Japan).
# Min6 cell line = assay: Stimulation of insulin secretion in mouse pancreatic beta-cell line (Insulin ELISA); format: cell-based; settings: 25 mM glucose, 0.5 ng/ml, 2 hours, vs 25 mM glucose negative control, FIG. 3
# Method: The effect of the novel compound KRIBB-BH-SFP isolated from Quamoclit angulata on the stimulation of insulin secretion was determined in a mouse pancreatic beta-cell line, Min6 cell line.
# Min6 cells (ATCC, USA) were cultured in HDMEM supplemented with 15% fetal bovine serum. To induce the expression of insulin in the Min6 cell line, the cells were plated on a 96 well plate at a density of 1×10^4 cell/plate and cultured in […] DMEM (high glucose) supplemented with 15% FBS for 72 hours. Then, the cells were washed with PBS buffer solution and cultured in HBSS buffer solution for 2 hours, and then, the buffer solution was replaced with HBSS buffer solution supplemented with 25 mM glucose. Then, the novel compound […] was added to a final concentration of 0.5 ng/ml, and the cells were cultured for 2 hours to determine the stimulation of insulin expression. Meanwhile, for use as a control, cells were treated with 5.5 mM glucose such that the insulin was not expressed. For use as a negative control, cells were treated with 25 mM glucose, and the level of insulin expression in these cells was compared to determine the effect of the novel compound (KRIBB-BH-SFP) derived from Quamoclit angulata on the stimulation of insulin expression. […]
Compound,level of blood glucose (fasting) [1],level of blood glucose [2],HbA1c [3] [%],level of insulin expression (insulin secreted from Min6 cells) (Min6 cell line),level of glycated hemoglobin ([3]; in words)
CCCCCC(CCCC(O)CC(=O)O)OC1OC(COC2OC(C)C(OC3CC(O)C(O)C(C)O3)CC2O)C(O)C(O)C1OC1CC(O)C(OC2CC(O)C(OC3CC(O)C(OC)C(C)O3)C(C)O2)C(C)O1 (stereo not drawn) [KRIBB-BH-P],significantly reduced,significantly reduced,6.63 ± 0.70,–,–
CCCCCC(O)CCCC(O)CC(=O)O (stereo not drawn) [KRIBB-BH-SC],–,–,–,increased,–
CCCCCC(CCCC(O)CC(=O)O)OC1OC(C)C(O)C(O)C1O (stereo not drawn) [KRIBB-BH-SFP],significantly reduced,significantly reduced,6.51 ± 0.46,increased,significantly reduced
